Assay results published in patent US6350745B1, “Thrombin inhibitors” (Merck & Co., Inc., priority 1999, dated 2002).

Biological target: human α-thrombin (Homo sapiens, UniProt P00734)
Assay: In vitro assay for determining proteinase inhibition (thrombin)
Format: biochemical
Conditions: 25° C., 0.05 M TRIS buffer pH 7.4, 0.15 M NaCl, 0.1% PEG
Protocol: In vitro Assay for Determining Proteinase Inhibition
Assays of human α-thrombin and human trypsin were performed by the methods substantially as described in Thrombosis Research, Issue No. 70, page 173 (1993) by S. D. Lewis et al.
The assays were carried out at 25° C. in 0.05 M TRIS buffer pH 7.4, 0.15 M NaCl, 0.1% PEG. Trypsin assays also contained 1 mM CaCl2. In assays wherein rates of hydrolysis of a p-nitroanilide (pna) substrate were determined, a Thermomax 96-well plate reader was used was used to measure (at 405 nm) the time dependent appearance of p-nitroaniline. sar-PR-pna was used to assay human […]thrombin (Km=125 μM) and bovine trypsin (Km=125 μM). p-Nitroanilide substrate concentration was determined from measurements of absorbance at 342 nm using an extinction coefficient of 8270 cm^−1 M^−1.
In certain studies with potent inhibitors (Ki<10 nM) where the degree of inhibition of thrombin was high, a more sensitive activity assay was employed. […]
Activity assays were performed by diluting a stock solution of substrate at least tenfold to a final concentration ≦0.1 Km into a solution containing enzyme or enzyme equilibrated with inhibitor. Times required to achieve equilibration between enzyme and inhibitor were determined in control experiments. Initial velocities of product formation in the absence (Vo) or presence of inhibitor (Vi) were measured. […]

- Ki: < 100 nM
Structure (SMILES): Cc1cc2c(c(=O)n1CC(=O)NCc1ncccc1F)NC(=O)OC2(CC1CC1)CC1CC1 [compound 3-1]
